Reference: the supplement of paper PMC13380429

What was measured:
[1] = system: A549-ACE2 infected with SARS-CoV-2; assay: cell count relative to DMSO; higher = less toxic; conditions: 24 h
Caco-2 [2] = assay: cell viability relative to DMSO; higher = less toxic; conditions: 72 h
Calu-3 [3] = assay: as above; conditions: 72 h
HepG2 [4] = assay: as above; conditions: 72 h
U2OS [5] = assay: as above; conditions: 72 h
Vero E6 [6] = assay: as above; conditions: 72 h
[7] = system: A549-ACE2 infected with SARS-CoV-2; assay: SARS-CoV-2 infection rate relative to DMSO; higher = more infection; conditions: 24 h
A549-ACE2 [8] = assay: phospholipidosis EC50; higher = less potent phospholipidosis inducer
A549-ACE2 [9] = assay: drug-induced phospholipidosis relative to tamoxifen; higher = more phospholipidosis
[10] = system: A549-ACE2 infected with SARS-CoV-2; assay: morphology score (similarity to uninfected cells); higher = more like uninfected cells; conditions: 24 h
Caco-2 [11] = assay: relative viability EC50 (midpoint between 100% and the lowest measured viability); higher = less toxic; conditions: 72 h
Calu-3 [12] = assay: as above; conditions: 72 h
HepG2 [13] = assay: as above; conditions: 72 h
U2OS [14] = assay: as above; conditions: 72 h
Vero E6 [15] = assay: as above; conditions: 72 h
Caco-2 [16] = assay: drug sensitivity score (DSS) for viability; higher = more toxic; extreme values may be limits of the assay; conditions: 72 h
Calu-3 [17] = assay: as above; conditions: 72 h
HepG2 [18] = assay: as above; conditions: 72 h
U2OS [19] = assay: as above; conditions: 72 h
Vero E6 [20] = assay: as above; conditions: 72 h

CNCc1ccc(C)c(NC(=O)c2ccc(Nc3nc(-c4ccccc4)c4ccccc4n3)cc2)c1
Conditions	SARS-CoV-2 infection rate [%]	cell count [%]	cell viability [%]	morphology score	phospholipidosis EC50 [nM]
A549-ACE2 [8], 24 h	–	–	–	–	1580
A549-ACE2 [8], 48 h	–	–	–	–	1490
A549-ACE2 [8], 72 h	–	–	–	–	2070
Caco-2 [2], 1 nM	–	–	93.8	–	–
Caco-2 [2], 10 nM	–	–	99.5	–	–
Caco-2 [2], 100 nM	–	–	90.1	–	–
Caco-2 [2], 1000 nM	–	–	98.3	–	–
Caco-2 [2], 10000 nM	–	–	25.4	–	–
Calu-3 [3], 1 nM	–	–	96.6	–	–
Calu-3 [3], 10 nM	–	–	101	–	–
Calu-3 [3], 100 nM	–	–	102	–	–
Calu-3 [3], 1000 nM	–	–	92	–	–
Calu-3 [3], 10000 nM	–	–	4.1	–	–
HepG2 [4], 1 nM	–	–	107	–	–
HepG2 [4], 10 nM	–	–	104	–	–
HepG2 [4], 100 nM	–	–	105	–	–
HepG2 [4], 1000 nM	–	–	88.3	–	–
HepG2 [4], 10000 nM	–	–	36.8	–	–
U2OS [5], 1 nM	–	–	100	–	–
U2OS [5], 10 nM	–	–	101	–	–
U2OS [5], 100 nM	–	–	103	–	–
U2OS [5], 1000 nM	–	–	100	–	–
U2OS [5], 10000 nM	–	–	35.3	–	–
Vero E6 [6], 1 nM	–	–	101	–	–
Vero E6 [6], 10 nM	–	–	99.6	–	–
Vero E6 [6], 100 nM	–	–	100	–	–
Vero E6 [6], 1000 nM	–	–	98.2	–	–
Vero E6 [6], 10000 nM	–	–	42.1	–	–
[1], 0.1 µM	–	103	–	–	–
[1], 0.3 µM	–	101	–	–	–
[1], 1 µM	–	108	–	–	–
[1], 3 µM	–	127	–	–	–
[7], 0.1 µM	99	–	–	–	–
[7], 0.3 µM	86	–	–	–	–
[7], 1 µM	89	–	–	–	–
[7], 3 µM	24	–	–	–	–
[10], 0.1 µM	–	–	–	0.21	–
[10], 0.3 µM	–	–	–	0.36	–
[10], 1 µM	–	–	–	0.34	–
[10], 3 µM	–	–	–	0.88	–

drug-induced phospholipidosis [%], A549-ACE2 [9]
Conditions	0.3 µM	0.833333 µM	3.33333 µM	6.66667 µM	10 µM	30 µM
24 h	5.53	23.7	77.2	98.9	84.8	99.7
48 h	5.67	17.1	89.4	102	92.4	–
72 h	1.97	13.2	86.2	99.1	115	–

Conditions	drug sensitivity score	relative viability EC50 [nM]
Caco-2 [11]	–	3000
Caco-2 [16]	4.3	–
Calu-3 [12]	–	2480
Calu-3 [17]	6.6	–
HepG2 [13]	–	1810
HepG2 [18]	5.4	–
U2OS [14]	–	3210
U2OS [19]	3.5	–
Vero E6 [15]	–	2940
Vero E6 [20]	3.4	–

Cc1cccc(Nc2nc(-c3ccncc3)cs2)c1
Conditions	SARS-CoV-2 infection rate [%]	cell count [%]	cell viability [%]	morphology score	phospholipidosis EC50 [nM]
A549-ACE2 [8], 24 h	–	–	–	–	2940
A549-ACE2 [8], 48 h	–	–	–	–	2720
A549-ACE2 [8], 72 h	–	–	–	–	3300
Caco-2 [2], 1 nM	–	–	102	–	–
Caco-2 [2], 10 nM	–	–	111	–	–
Caco-2 [2], 100 nM	–	–	97.4	–	–
Caco-2 [2], 1000 nM	–	–	98	–	–
Caco-2 [2], 10000 nM	–	–	85.8	–	–
HepG2 [4], 1 nM	–	–	104	–	–
HepG2 [4], 10 nM	–	–	108	–	–
HepG2 [4], 100 nM	–	–	97.2	–	–
HepG2 [4], 1000 nM	–	–	94.1	–	–
HepG2 [4], 10000 nM	–	–	48.5	–	–
U2OS [5], 1 nM	–	–	99.2	–	–
U2OS [5], 10 nM	–	–	98.5	–	–
U2OS [5], 100 nM	–	–	95.8	–	–
U2OS [5], 1000 nM	–	–	98.5	–	–
U2OS [5], 10000 nM	–	–	93.6	–	–
Vero E6 [6], 1 nM	–	–	95.5	–	–
Vero E6 [6], 10 nM	–	–	111	–	–
Vero E6 [6], 100 nM	–	–	99	–	–
Vero E6 [6], 1000 nM	–	–	94.9	–	–
Vero E6 [6], 10000 nM	–	–	70.6	–	–
[1], 0.1 µM	–	108	–	–	–
[1], 0.3 µM	–	107	–	–	–
[1], 1 µM	–	110	–	–	–
[1], 3 µM	–	106	–	–	–
[7], 0.1 µM	92	–	–	–	–
[7], 0.3 µM	91	–	–	–	–
[7], 1 µM	83	–	–	–	–
[7], 3 µM	50	–	–	–	–
[10], 0.1 µM	–	–	–	0.25	–
[10], 0.3 µM	–	–	–	0.02	–
[10], 1 µM	–	–	–	0.28	–
[10], 3 µM	–	–	–	0.31	–

drug-induced phospholipidosis [%], A549-ACE2 [9]
Conditions	0.3 µM	0.833333 µM	3.33333 µM	6.66667 µM	10 µM	30 µM
24 h	2.6	8.64	73.8	102	110	57.3
48 h	5.9	9.76	87.3	116	123	69.6
72 h	6.14	9.12	70	125	120	–

Conditions	drug sensitivity score	relative viability EC50 [nM]
Caco-2 [11]	–	> 10000
Caco-2 [16]	0.3	–
HepG2 [13]	–	2220
HepG2 [18]	3.7	–
U2OS [14]	–	> 10000
U2OS [19]	0	–
Vero E6 [20]	2.1	–
